Legend:
Test in all cases: KINOMEscan competition binding
Conditions in all cases: compound 10.0 µM
[1] = tested on: ABL1 (human), P00519 [Y253F]
AURKB (human) = AURKB (human) (UniProt Q96GD4)
BMPR2 (human) = BMPR2 (human) (UniProt Q13873)
CAMK1D (human) = CAMK1D (human) (UniProt Q8IU85)
CAMK1G (human) = CAMK1G (human) (UniProt Q96NX5)
CAMK2A (human) = CAMK2A (human) (UniProt Q9UQM7)
CHEK1 (human) = CHEK1 (human) (UniProt O14757)
CHUK (human) = CHUK (human) (UniProt O15111)
CSK (human) = CSK (human) (UniProt P41240)
DAPK2 (human) = DAPK2 (human) (UniProt Q9UIK4)
DCLK1 (human) = DCLK1 (human) (UniProt O15075)
FES (human) = FES (human) (UniProt P07332)
FGFR3 (human) = FGFR3 (human) (UniProt P22607)
[2] = tested on: FLT3 (human), P36888 [D835H]
FRK (human) = FRK (human) (UniProt P42685)
GAK (human) = GAK (human) (UniProt O14976)
GSK3A (human) = GSK3A (human) (UniProt P49840)
INSR (human) = INSR (human) (UniProt P06213)
KIT (human) = KIT (human) (UniProt P10721)
LCK (human) = LCK (human) (UniProt P06239)
LIMK2 (human) = LIMK2 (human) (UniProt P53671)
MAP2K1 (human) = MAP2K1 (human) (UniProt Q02750)
MAPK14 (human) = MAPK14 (human) (UniProt Q16539)
MUSK (human) = MUSK (human) (UniProt O15146)
PDPK1 (human) = PDPK1 (human) (UniProt O15530)
PKN2 (human) = PKN2 (human) (UniProt Q16513)
PRKACB (human) = PRKACB (human) (UniProt P22694)
PRKD1 (human) = PRKD1 (human) (UniProt Q15139)
RPS6KA1 KD2 (human) = RPS6KA1 KD2 (human) (UniProt Q15418)
STK32C (human) = STK32C (human) (UniProt Q86UX6)
STK4 (human) = STK4 (human) (UniProt Q13043)
ULK1 (human) = ULK1 (human) (UniProt O75385)
ULK3 (human) = ULK3 (human) (UniProt Q6PHR2)

BMPR2 (human), sequence (Q13873 whole entry, looked up): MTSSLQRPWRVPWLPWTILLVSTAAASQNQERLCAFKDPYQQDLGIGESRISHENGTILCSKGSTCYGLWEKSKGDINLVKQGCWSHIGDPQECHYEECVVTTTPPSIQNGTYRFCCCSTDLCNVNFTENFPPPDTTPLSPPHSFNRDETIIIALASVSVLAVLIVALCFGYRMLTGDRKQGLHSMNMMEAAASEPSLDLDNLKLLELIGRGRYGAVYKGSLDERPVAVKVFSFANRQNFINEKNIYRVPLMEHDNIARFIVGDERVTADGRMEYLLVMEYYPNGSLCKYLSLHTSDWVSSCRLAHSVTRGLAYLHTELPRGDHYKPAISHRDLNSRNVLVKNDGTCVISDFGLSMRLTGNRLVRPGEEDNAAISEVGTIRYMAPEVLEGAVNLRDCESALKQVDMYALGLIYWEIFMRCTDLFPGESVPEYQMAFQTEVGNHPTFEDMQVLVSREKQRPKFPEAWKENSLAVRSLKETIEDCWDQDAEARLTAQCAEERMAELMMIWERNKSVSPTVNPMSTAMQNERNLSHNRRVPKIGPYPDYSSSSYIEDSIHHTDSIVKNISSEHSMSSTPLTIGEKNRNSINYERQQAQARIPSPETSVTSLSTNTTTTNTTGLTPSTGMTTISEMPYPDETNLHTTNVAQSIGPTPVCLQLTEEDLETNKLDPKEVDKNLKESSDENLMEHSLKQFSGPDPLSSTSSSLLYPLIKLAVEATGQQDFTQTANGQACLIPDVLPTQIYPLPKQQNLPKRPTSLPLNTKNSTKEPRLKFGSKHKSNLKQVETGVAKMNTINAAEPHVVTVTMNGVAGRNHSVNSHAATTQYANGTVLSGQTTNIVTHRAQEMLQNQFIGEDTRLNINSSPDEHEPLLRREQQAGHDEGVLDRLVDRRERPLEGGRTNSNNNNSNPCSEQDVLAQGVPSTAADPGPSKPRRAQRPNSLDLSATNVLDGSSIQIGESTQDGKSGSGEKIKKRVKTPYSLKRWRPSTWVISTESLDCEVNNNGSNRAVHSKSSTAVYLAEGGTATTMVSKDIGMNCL
GSK3A (human), sequence (P49840 whole entry, looked up): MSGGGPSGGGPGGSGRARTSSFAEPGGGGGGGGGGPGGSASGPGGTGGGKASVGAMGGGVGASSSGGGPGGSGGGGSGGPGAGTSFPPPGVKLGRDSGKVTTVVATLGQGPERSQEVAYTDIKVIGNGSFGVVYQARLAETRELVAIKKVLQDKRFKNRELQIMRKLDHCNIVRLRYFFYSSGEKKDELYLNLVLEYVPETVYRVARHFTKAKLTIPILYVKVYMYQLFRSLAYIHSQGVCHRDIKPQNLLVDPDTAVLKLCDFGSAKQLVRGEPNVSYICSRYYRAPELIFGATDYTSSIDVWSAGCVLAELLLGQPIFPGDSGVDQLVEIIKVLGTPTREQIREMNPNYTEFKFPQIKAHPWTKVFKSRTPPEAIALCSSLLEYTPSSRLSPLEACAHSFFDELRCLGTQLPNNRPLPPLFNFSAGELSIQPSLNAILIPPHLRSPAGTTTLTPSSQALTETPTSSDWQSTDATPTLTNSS
MAPK14 (human), sequence (Q16539 whole entry, looked up): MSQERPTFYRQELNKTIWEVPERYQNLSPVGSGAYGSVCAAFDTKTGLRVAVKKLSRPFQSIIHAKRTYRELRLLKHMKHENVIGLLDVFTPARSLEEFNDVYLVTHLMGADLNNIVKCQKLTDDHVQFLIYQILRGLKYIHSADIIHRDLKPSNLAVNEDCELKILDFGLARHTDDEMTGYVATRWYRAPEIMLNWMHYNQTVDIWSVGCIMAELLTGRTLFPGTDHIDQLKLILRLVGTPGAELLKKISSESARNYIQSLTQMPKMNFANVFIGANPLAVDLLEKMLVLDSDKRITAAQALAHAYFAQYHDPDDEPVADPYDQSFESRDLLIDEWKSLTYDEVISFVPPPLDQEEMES
CHEK1 (human), sequence (O14757 whole entry, looked up): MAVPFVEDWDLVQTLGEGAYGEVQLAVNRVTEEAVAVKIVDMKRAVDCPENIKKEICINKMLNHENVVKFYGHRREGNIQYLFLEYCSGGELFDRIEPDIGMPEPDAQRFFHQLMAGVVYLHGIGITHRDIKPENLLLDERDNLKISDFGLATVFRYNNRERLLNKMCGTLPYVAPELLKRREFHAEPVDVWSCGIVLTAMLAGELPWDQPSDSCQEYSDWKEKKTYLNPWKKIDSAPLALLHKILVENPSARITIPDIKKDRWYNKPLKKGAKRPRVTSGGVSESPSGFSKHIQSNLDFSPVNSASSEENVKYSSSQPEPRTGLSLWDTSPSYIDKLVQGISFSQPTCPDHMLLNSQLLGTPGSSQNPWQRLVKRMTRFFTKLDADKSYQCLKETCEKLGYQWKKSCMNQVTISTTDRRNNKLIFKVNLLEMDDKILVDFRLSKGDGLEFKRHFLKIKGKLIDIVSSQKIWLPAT
RPS6KA1 KD2 (human), sequence (Q15418 whole entry, looked up): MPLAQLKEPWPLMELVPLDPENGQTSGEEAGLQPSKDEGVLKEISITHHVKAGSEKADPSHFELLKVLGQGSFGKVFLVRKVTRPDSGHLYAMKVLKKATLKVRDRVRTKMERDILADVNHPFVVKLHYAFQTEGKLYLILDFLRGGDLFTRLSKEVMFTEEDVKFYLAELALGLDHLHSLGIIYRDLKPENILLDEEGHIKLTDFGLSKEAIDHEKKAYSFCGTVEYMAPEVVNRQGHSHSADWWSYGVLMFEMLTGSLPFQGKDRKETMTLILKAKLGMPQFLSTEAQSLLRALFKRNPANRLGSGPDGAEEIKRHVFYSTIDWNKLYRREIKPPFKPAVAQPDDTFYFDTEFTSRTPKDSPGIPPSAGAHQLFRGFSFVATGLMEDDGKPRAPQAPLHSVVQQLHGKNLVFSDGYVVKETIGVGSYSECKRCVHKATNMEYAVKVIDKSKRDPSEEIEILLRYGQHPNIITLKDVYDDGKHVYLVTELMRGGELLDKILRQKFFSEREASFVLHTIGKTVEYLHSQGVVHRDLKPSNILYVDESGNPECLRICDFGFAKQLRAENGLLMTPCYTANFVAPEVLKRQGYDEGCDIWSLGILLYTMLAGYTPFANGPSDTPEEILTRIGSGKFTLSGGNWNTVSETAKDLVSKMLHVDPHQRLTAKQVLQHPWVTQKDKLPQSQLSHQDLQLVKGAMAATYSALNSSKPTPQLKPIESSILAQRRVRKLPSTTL
FGFR3 (human), sequence (P22607 whole entry, looked up): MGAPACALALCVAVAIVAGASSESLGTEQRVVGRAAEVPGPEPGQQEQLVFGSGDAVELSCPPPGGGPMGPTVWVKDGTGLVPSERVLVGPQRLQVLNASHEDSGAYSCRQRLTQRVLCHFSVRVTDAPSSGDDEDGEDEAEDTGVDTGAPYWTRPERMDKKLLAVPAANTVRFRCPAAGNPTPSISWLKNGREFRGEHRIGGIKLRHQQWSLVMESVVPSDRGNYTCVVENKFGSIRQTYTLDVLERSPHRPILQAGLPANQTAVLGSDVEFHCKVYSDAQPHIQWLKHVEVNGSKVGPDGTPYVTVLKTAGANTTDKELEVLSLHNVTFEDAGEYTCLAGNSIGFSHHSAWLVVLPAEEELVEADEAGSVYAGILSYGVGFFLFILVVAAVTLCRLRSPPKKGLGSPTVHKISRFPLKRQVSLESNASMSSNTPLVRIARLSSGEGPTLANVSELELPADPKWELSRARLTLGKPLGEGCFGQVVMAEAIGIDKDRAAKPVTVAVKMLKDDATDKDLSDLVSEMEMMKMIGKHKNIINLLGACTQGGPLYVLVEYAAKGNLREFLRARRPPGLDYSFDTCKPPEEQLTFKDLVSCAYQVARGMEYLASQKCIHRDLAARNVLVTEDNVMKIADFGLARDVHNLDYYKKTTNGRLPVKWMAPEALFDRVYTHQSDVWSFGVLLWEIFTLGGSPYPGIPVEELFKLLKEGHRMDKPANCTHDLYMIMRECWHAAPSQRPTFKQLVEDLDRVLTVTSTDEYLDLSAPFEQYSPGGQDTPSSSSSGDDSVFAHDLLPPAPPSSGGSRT
PKN2 (human), sequence (Q16513 whole entry, looked up): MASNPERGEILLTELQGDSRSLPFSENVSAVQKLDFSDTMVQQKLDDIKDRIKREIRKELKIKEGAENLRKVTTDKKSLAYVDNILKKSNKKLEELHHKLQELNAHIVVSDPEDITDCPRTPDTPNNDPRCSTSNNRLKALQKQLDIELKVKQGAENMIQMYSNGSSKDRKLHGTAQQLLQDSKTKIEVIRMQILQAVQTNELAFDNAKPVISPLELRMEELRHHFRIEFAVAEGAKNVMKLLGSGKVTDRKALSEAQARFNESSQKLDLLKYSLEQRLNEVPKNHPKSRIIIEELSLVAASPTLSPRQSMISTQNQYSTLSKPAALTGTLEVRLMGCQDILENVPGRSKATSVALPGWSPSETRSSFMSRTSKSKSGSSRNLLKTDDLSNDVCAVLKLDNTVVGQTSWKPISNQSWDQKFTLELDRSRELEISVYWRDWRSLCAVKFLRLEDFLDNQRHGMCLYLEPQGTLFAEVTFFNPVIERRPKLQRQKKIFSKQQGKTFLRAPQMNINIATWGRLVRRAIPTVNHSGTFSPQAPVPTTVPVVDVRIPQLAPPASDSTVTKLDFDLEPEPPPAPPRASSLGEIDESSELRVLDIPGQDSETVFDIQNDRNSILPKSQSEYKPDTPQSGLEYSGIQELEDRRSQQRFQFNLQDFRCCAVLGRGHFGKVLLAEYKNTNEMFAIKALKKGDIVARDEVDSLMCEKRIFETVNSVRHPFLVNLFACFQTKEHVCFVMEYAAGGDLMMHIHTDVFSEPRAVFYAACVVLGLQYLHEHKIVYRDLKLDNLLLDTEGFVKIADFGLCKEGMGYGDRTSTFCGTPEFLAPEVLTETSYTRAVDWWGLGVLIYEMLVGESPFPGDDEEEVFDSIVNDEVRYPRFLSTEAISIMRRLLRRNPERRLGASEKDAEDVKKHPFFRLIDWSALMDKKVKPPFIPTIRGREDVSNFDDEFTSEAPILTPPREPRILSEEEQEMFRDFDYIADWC

Row | kinase still bound, per cent of control [1] [%] | kinase still bound, per cent of control (AURKB (human)) [%] | kinase still bound, per cent of control (BMPR2 (human)) [%] | kinase still bound, per cent of control (CAMK1D (human)) [%] | kinase still bound, per cent of control (CAMK1G (human)) [%] | kinase still bound, per cent of control (CAMK2A (human)) [%] | kinase still bound, per cent of control (CHEK1 (human)) [%] | kinase still bound, per cent of control (CSK (human)) [%] | kinase still bound, per cent of control (DAPK2 (human)) [%] | kinase still bound, per cent of control (DCLK1 (human)) [%] | kinase still bound, per cent of control (FES (human)) [%] | kinase still bound, per cent of control (FGFR3 (human)) [%] | kinase still bound, per cent of control [2] [%] | kinase still bound, per cent of control (FRK (human)) [%] | kinase still bound, per cent of control (GAK (human)) [%] | kinase still bound, per cent of control (GSK3A (human)) [%] | kinase still bound, per cent of control (KIT (human)) [%] | kinase still bound, per cent of control (LCK (human)) [%] | kinase still bound, per cent of control (LIMK2 (human)) [%] | kinase still bound, per cent of control (MAP2K1 (human)) [%] | Structure (SMILES) | further results
1 | 12 | 0.7 | 7.9 | 100 | 100 | 100 | 100 | 100 | 100 | 100 | 12 | 18 | 0.65 | 33 | 2.5 | 18 | 20 | 0.3 | 100 | 3 | CNC(=O)c1ccc(Nc2cc(Nc3ccccc3S(=O)(=O)C(C)C)c3cc[nH]c3n2)nc1 | kinase still bound, per cent of control (CHUK (human)): 100%; kinase still bound, per cent of control (INSR (human)): 0.4%; kinase still bound, per cent of control (MAPK14 (human)): 100%; kinase still bound, per cent of control (MUSK (human)): 0.95%; kinase still bound, per cent of control (PDPK1 (human)): 100%; kinase still bound, per cent of control (PKN2 (human)): 5.4%; kinase still bound, per cent of control (PRKACB (human)): 13%; kinase still bound, per cent of control (PRKD1 (human)): 100%; kinase still bound, per cent of control (RPS6KA1 KD2 (human)): 100%; kinase still bound, per cent of control (STK32C (human)): 100%; kinase still bound, per cent of control (STK4 (human)): 4.2%; kinase still bound, per cent of control (ULK1 (human)): 7.2%; kinase still bound, per cent of control (ULK3 (human)): 3.7%
2 | 100 | 100 | 100 | 100 | 100 | 100 | 100 | 100 | 100 | 100 | 100 | 0.05 | 100 | 100 | 100 | 100 | 100 | 22 | 100 | 100 | CCN(CC)CCCCNc1ncc2cc(-c3cc(OC)cc(OC)c3)c(NC(=O)NC(C)(C)C)nc2n1 | kinase still bound, per cent of control (MAPK14 (human)): 100%; kinase still bound, per cent of control (MUSK (human)): 100%; kinase still bound, per cent of control (PDPK1 (human)): 100%; kinase still bound, per cent of control (PKN2 (human)): 100%; kinase still bound, per cent of control (PRKACB (human)): 100%; kinase still bound, per cent of control (PRKD1 (human)): 100%; kinase still bound, per cent of control (RPS6KA1 KD2 (human)): 100%; kinase still bound, per cent of control (STK32C (human)): 100%; kinase still bound, per cent of control (STK4 (human)): 100%
3 | 13 | 100 | 8.9 | 100 | 100 | 100 | 100 | 100 | 100 | 100 | 4 | 4.5 | 16 | 0.65 | 100 | 100 | 0.3 | 0.2 | 100 | 100 | C=CC(=O)Nc1ccc(CN(C(=O)Nc2c(Cl)c(OC)cc(OC)c2Cl)c2cc(Nc3ccc(N4CCN(C)CC4)cc3)ncn2)cc1 | kinase still bound, per cent of control (CHUK (human)): 100%; kinase still bound, per cent of control (INSR (human)): 24%; kinase still bound, per cent of control (MAPK14 (human)): 100%; kinase still bound, per cent of control (MUSK (human)): 6.2%; kinase still bound, per cent of control (PDPK1 (human)): 100%; kinase still bound, per cent of control (PKN2 (human)): 100%; kinase still bound, per cent of control (PRKACB (human)): 100%; kinase still bound, per cent of control (PRKD1 (human)): 100%; kinase still bound, per cent of control (RPS6KA1 KD2 (human)): 100%; kinase still bound, per cent of control (STK32C (human)): 100%; kinase still bound, per cent of control (STK4 (human)): 100%; kinase still bound, per cent of control (ULK1 (human)): 100%; kinase still bound, per cent of control (ULK3 (human)): 100%

Row | Structure (SMILES) | kinase still bound, per cent of control [1] [%] | kinase still bound, per cent of control (AURKB (human)) [%] | kinase still bound, per cent of control (BMPR2 (human)) [%] | kinase still bound, per cent of control (CAMK1D (human)) [%] | kinase still bound, per cent of control (CAMK1G (human)) [%] | kinase still bound, per cent of control (CAMK2A (human)) [%] | kinase still bound, per cent of control (CHEK1 (human)) [%] | kinase still bound, per cent of control (CSK (human)) [%] | kinase still bound, per cent of control (DAPK2 (human)) [%] | kinase still bound, per cent of control (DCLK1 (human)) [%] | kinase still bound, per cent of control (FES (human)) [%] | kinase still bound, per cent of control (FGFR3 (human)) [%] | kinase still bound, per cent of control [2] [%] | kinase still bound, per cent of control (FRK (human)) [%] | kinase still bound, per cent of control (GAK (human)) [%] | kinase still bound, per cent of control (GSK3A (human)) [%] | kinase still bound, per cent of control (KIT (human)) [%] | kinase still bound, per cent of control (LCK (human)) [%] | kinase still bound, per cent of control (LIMK2 (human)) [%] | kinase still bound, per cent of control (MAP2K1 (human)) [%] | further results
4 | Cc1n[nH]c2ccc(-c3cncc(OC[C@@H](N)Cc4c[nH]c5ccccc45)c3)cc12 | 100 | 100 | 100 | 11 | 100 | 0.7 | 100 | 100 | 1.3 | 100 | 100 | 100 | 5 | 100 | 8.1 | 1 | 100 | 100 | 100 | 100 | kinase still bound, per cent of control (CHUK (human)): 1%; kinase still bound, per cent of control (INSR (human)): 100%; kinase still bound, per cent of control (MAPK14 (human)): 100%; kinase still bound, per cent of control (MUSK (human)): 100%; kinase still bound, per cent of control (PDPK1 (human)): 100%; kinase still bound, per cent of control (PKN2 (human)): 2.4%; kinase still bound, per cent of control (PRKACB (human)): 0.45%; kinase still bound, per cent of control (PRKD1 (human)): 2%; kinase still bound, per cent of control (RPS6KA1 KD2 (human)): 100%; kinase still bound, per cent of control (STK32C (human)): 100%; kinase still bound, per cent of control (STK4 (human)): 100%; kinase still bound, per cent of control (ULK1 (human)): 22%; kinase still bound, per cent of control (ULK3 (human)): 100%
